Assay results: PubChem BioAssay (NCI)
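Method: 48-hour compound exposure of cells in 96-well plates, five concentrations, linear interpolation of endpoints. At the GI50, growth is halved. TGI denotes the concentration required for complete inhibition of growth.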

Tests used:
Test in all cases: DTP human tumour cell line panel, 48 h
NCI-H23 lung = system: NCI-H23 lung
HCT-116 colon = system: HCT-116 colon
SW-620 colon = system: SW-620 colon
MALME-3M melanoma = system: MALME-3M melanoma
HCC-2998 colon = system: HCC-2998 colon
OVCAR-5 ovarian = system: OVCAR-5 ovarian
COLO 205 colon = system: COLO 205 colon
SF-268 CNS = system: SF-268 CNS
OVCAR-4 ovarian = system: OVCAR-4 ovarian
MDA-MB-231 breast = system: MDA-MB-231 breast

Structure (SMILES)	TGI (NCI-H23 lung) [µM]	TGI (HCT-116 colon) [µM]	TGI (SW-620 colon) [µM]	TGI (MALME-3M melanoma) [µM]	TGI (HCC-2998 colon) [µM]	TGI (OVCAR-5 ovarian) [µM]	TGI (COLO 205 colon) [µM]	TGI (SF-268 CNS) [µM]	TGI (OVCAR-4 ovarian) [µM]	GI50 (SW-620 colon) [µM]	GI50 (OVCAR-4 ovarian) [µM]	GI50 (NCI-H23 lung) [µM]	GI50 (HCT-116 colon) [µM]	GI50 (MDA-MB-231 breast) [µM]	TGI (MDA-MB-231 breast) [µM]	GI50 (OVCAR-5 ovarian) [µM]	GI50 (COLO 205 colon) [µM]	GI50 (SF-268 CNS) [µM]	GI50 (HCC-2998 colon) [µM]	GI50 (MALME-3M melanoma) [µM]
CCOc1cc2ccc3c4cc(OC)c(OC)cc4cnc3c2cc1OCC	> 100	> 100	> 100	> 100	> 100	> 100	> 100	> 100	> 100											
COc1ccc(/C=N/N=C(\N)NO)c(Cl)c1O	63.7	> 100	> 100	> 100	40.4	6.86	> 100	> 100	> 100											
CC(/C=C/C(=O)c1sc(-n2nc(-c3ccccc3)cc2-c2ccccc2)nc1C)=C\c1ccccc1	68.1	> 100	> 100	> 100	> 100			> 100	> 100	> 100	> 100									
Cc1nnc(N=Nc2c(O)[nH]c3c(Cl)cc(Cl)cc23)n1N	> 100	> 100	> 100	> 100	> 100	> 100	> 100	> 100	> 100											
COc1c(C)c2c(c3c1c(=O)c1ccccc1n3C)C=CC(C)(C)O2	> 100	44.8	> 100	56.7	95.6	87.6	99.1	91.4												
COCc1c(CO)cnc(C)c1OC1OC(CO)C(O)C(O)C1O (stereo not drawn)		> 100	> 100	> 100	> 100	> 100		> 100	> 100											
O=C(NCCO)c1cc2c(cn1)[nH]c1ccccc12	> 100	> 100	> 100	43.9	33.2	> 100	> 100	> 100	> 100											
COc1c2c3ccccc3nc-2n(C)c2ccccc12	33.6	81.7	> 100			> 100	49.4	30.4		7.97		11.7	4.18	7.03	40.4	8.43	6.73	10.2		
CC1=C(C(=O)Nc2ccccc2)C(c2ccc([N+](=O)[O-])cc2)C(C(=O)Nc2ccccc2)=C(C)N1	64.7	37.2	38.5	> 100	45.8	> 100		57.9												
c1ccc(N=c2snc3scc(-c4ccccc4)n23)cc1	> 100		> 100	98.6	> 100	> 100	80.6	> 100	> 100											
Cc1nc2ccccn2c1NC(=O)NNC(=S)Nc1ccc(Br)cc1		62.9	> 100		73.1	> 100	84.5	> 100	> 100	39.8	66.2		22.9	22.6	59.1	32.2	29.4	67.9	27.4	
C=CCCCn1ccc2ccccc21	> 100	> 100	> 100	> 100	> 100	> 100	> 100	> 100												
O=C1OC(c2ccccc2)=N/C1=C\c1ccc2ccccc2c1	> 100	> 100	> 100	> 100		> 100	> 100	> 100	> 100											
O=C(/C=C/c1ccc(O)c(O)c1)OC1C[C@@](O)(C(=O)O)C[C@@H](O)[C@H]1OC(=O)/C=C/c1ccc(O)c(O)c1 (stereo partly drawn)	> 100	> 100	> 100	> 100	> 100	> 100	> 100	> 100	> 100											
O=Cc1ccc(-c2ccc(-c3nc4ccccc4[nH]3)cc2)s1	35	39	> 100		81.3	> 100		48.3	96.1	59.4	33.8	17.2	18.4	45.8	> 100	37		19.8	29.3	
CCN(CC)c1ccc(C2CC(c3cc(OC)c(OC)c(OC)c3)=NN2)cc1 (stereo not drawn)	> 100	> 100	> 100	> 78.7	> 27	> 100		> 100	> 100	0.47	4.34	2.69	0.744	0.513	69.2	5.12		0.797	1.15	14.5
N#CC(/C(=N\NC(=O)c1ccncc1)C(=O)Nc1ccc([N+](=O)[O-])cc1[N+](=O)[O-])c1nc(-c2ccc(Br)cc2)cs1 (stereo not drawn)		> 100	> 100	> 100	> 100	> 100	> 100	> 100	> 100											
O=C(NCCc1ccccc1)C(c1ccccc1)(c1ccccc1)c1ccccc1		> 100	> 100			50.6	> 100	> 100	> 100	4.35	> 100		1.95	0.519	4.21	3.91	3.26	30		
O=C(O)C1=C(C(=O)Nc2ccccc2)C2C=CC1C2 (stereo not drawn)	> 100	> 100	> 100	> 100	> 100	> 100	> 100	> 100	> 100											
CN(C)c1ncnc2c1Cc1ccccc1C(=O)N2C	> 100	> 100	> 100	> 100	> 100	> 100	> 100	> 100	> 100											
CC1CN(c2ccc(Cl)cc2)CC(C)(C)OC(=O)O1 (stereo not drawn)	> 100	> 100	> 100	> 100	> 100	> 100	> 100	> 100	> 100											
